Results taken from ChEMBL document CHEMBL1201862, “PubChem BioAssay data set” (2004).
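All cell lines were grown in 96-well plates and treated with compound for 48 hours. GI50 = concentration required for 50% inhibition of growth.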 Active and inactive are the calls of the source. No stated cut-off is given here; in the data, active = GI50 up to about 1.1 µM and inactive = higher.

Columns and labels:
Assay in all cases: DTP human tumour cell line panel, 48 h
[1] = test system: OVCAR-4
[2] = test system: UO-31
[3] = test system: MOLT-4
[4] = test system: OVCAR-5
[5] = test system: UACC-257
[6] = test system: MDA-MB-231
[7] = test system: TK-10
[8] = test system: SW-620
[9] = test system: COLO 205
[10] = test system: Hs-578T
[11] = test system: ACHN
[12] = test system: NCI-H226
[13] = test system: NCI-H522
[14] = test system: UACC-62
[15] = test system: A549
[16] = test system: 786-0
[17] = test system: HL-60
[18] = test system: Malme-3M
[19] = test system: RPMI-8226
[20] = test system: A498

Measured: GI50

CC1=CC(=O)/C(=C/n2c(=S)[nH]c3cc(C)ccc32)C(=O)O1
inactive: [1] 73.8 µM | [2] > 100 µM | [3] > 100 µM | [4] > 100 µM | [5] > 100 µM | [6] > 100 µM | [7] > 100 µM | [8] > 100 µM | [9] > 100 µM | [10] > 100 µM | [11] > 100 µM | [12] > 100 µM | [13] > 100 µM | [14] > 100 µM | [15] > 100 µM | [16] > 100 µM | [17] 55.6 µM

CC(C)CC1[C@@H](OCc2ccccc2)COS(=O)N1Cc1ccccc1 (stereo partly drawn)
inactive: [1] 44.2 µM | [2] 34.6 µM | [3] 37 µM | [4] > 100 µM | [5] 30.7 µM | [6] 20.7 µM | [7] 40 µM | [8] 39.8 µM | [9] 57 µM | [18] 23.3 µM | [10] 23.9 µM | [19] 20.8 µM | [11] 35 µM | [12] 47.1 µM | [14] 60 µM | [15] 46.6 µM | [16] 31.2 µM

CC1CN=C(N(C)C(=O)Nc2ccc(Cl)c(Cl)c2)S1 (stereo not drawn)
inactive: [20] 48.4 µM | [1] 36.6 µM | [2] 29.5 µM | [3] 27.9 µM | [4] 15.2 µM | [5] 26.9 µM | [6] 28.1 µM | [7] 26.8 µM | [8] 29.5 µM | [9] 40.8 µM | [18] 46.5 µM | [10] 22.8 µM | [19] 31.7 µM | [11] 11 µM | [15] 27.7 µM | [16] 35.6 µM | [17] 22.5 µM

CCOC(=O)C(=O)/C(=C/NC(=S)Nc1ccc(Cl)c(Cl)c1)C(=O)OCC
inactive: [1] 88.7 µM | [2] 27.5 µM | [3] 29.4 µM | [4] > 100 µM | [5] 60.3 µM | [6] > 100 µM | [7] > 100 µM | [8] 87.9 µM | [9] 67.9 µM | [18] > 100 µM | [10] 44.5 µM | [19] 17.9 µM | [11] > 100 µM | [12] 56 µM | [14] 57.8 µM | [15] > 100 µM | [16] 89.7 µM | [17] 15.9 µM

Clc1nc(Cl)c(Cc2ccccc2)c(Cl)n1
inactive: [1] 3.67 µM | [2] 18.2 µM | [3] 2.98 µM | [4] 21.8 µM | [5] > 10 µM | [6] 3.75 µM | [7] 18.3 µM | [8] 3.09 µM | [9] 6.46 µM | [18] 5.35 µM | [10] 2.66 µM | [19] 5.32 µM | [11] 15.7 µM | [12] 13.3 µM | [13] 1.19 µM | [14] 3.69 µM | [15] 12.5 µM | [16] 2.36 µM | [17] 7.45 µM

COc1ccc(C2Oc3c(cccc3OC)C=C2[N+](=O)[O-])cc1OC (stereo not drawn)
inactive: [1] 18.7 µM | [2] 14.7 µM | [3] 2.85 µM | [4] 13.8 µM | [5] 3.71 µM | [6] 9.91 µM | [7] 23.8 µM | [9] 13.7 µM | [18] 7.59 µM | [10] 6.25 µM | [19] 32.3 µM | [11] 10.4 µM | [12] 18.6 µM | [13] 2.97 µM | [14] 4.16 µM | [15] 14.7 µM | [16] 3.74 µM | [17] 2.62 µM

O=c1cnn(C2OC(C(O)CO)C(O)C2O)c(=O)[nH]1 (stereo not drawn)
inactive: [1] > 100 µM | [2] > 100 µM | [3] > 100 µM | [4] > 100 µM | [5] > 100 µM | [6] > 100 µM | [7] > 100 µM | [8] > 100 µM | [9] > 100 µM | [18] > 100 µM | [10] > 100 µM | [19] > 100 µM | [11] > 100 µM | [12] > 100 µM | [13] > 100 µM | [14] > 100 µM | [15] > 100 µM | [16] > 100 µM | [17] > 100 µM

O=C(NNc1nc(-c2ccccc2)cs1)Nc1ccccc1
inactive: [1] 28.7 µM | [2] 25.4 µM | [3] 27.7 µM | [4] 29.4 µM | [5] 20.7 µM | [6] 21.4 µM | [7] 19.5 µM | [8] 37.6 µM | [9] 19.6 µM | [18] 39.5 µM | [10] 28.9 µM | [19] 13.4 µM | [11] 37.5 µM | [12] 20.4 µM | [14] 19.4 µM | [15] 19.5 µM | [16] 30.2 µM

CC(O)C1(CNc2cc(Cl)nc(N)n2)CCC1 (stereo not drawn)
inactive: [1] > 100 µM | [2] > 100 µM | [3] > 100 µM | [4] > 100 µM | [5] 37.8 µM | [6] > 100 µM | [7] > 100 µM | [8] > 100 µM | [18] > 100 µM | [10] > 100 µM | [19] > 100 µM | [11] > 100 µM | [12] > 100 µM | [13] > 100 µM | [14] 89.9 µM | [15] > 100 µM | [16] > 100 µM | [17] > 100 µM

CCN(CC)CCOCC1CCCN2CCCCC12 (stereo not drawn)
inactive: [1] > 100 µM | [2] > 100 µM | [3] > 100 µM | [4] > 100 µM | [5] > 100 µM | [6] > 100 µM | [7] > 100 µM | [8] > 100 µM | [9] > 100 µM | [18] > 100 µM | [10] > 100 µM | [19] > 100 µM | [11] > 100 µM | [12] > 100 µM | [14] > 100 µM | [15] > 100 µM | [16] > 100 µM | [17] > 100 µM

CCSC1=CC(=O)c2nc3ccccc3c3ccnc1c23
inactive: [1] 2.69 µM | [2] 5.22 µM | [3] 2.64 µM | [4] 3.85 µM | [5] 1.95 µM | [6] 4.14 µM | [7] 12.1 µM | [8] 2.68 µM | [9] 8.15 µM | [18] 1.67 µM | [10] 3.14 µM | [19] 2.33 µM | [11] 3.65 µM | [12] 10.6 µM | [13] 1.45 µM | [14] 2.05 µM | [15] 7.8 µM | [16] 3.04 µM | [17] 2.06 µM

CC(=O)NC1C(OCc2ccccc2)OC(CO)C(O)C1OCC(=O)NC(C)C(=O)NC(CCC(=O)Nc1ccc2c(c1)CN1C(=O)c3ccccc3C1=N2)C(N)=O (stereo not drawn)
inactive: [20] > 100 µM | [1] > 100 µM | [2] > 100 µM | [3] 89.1 µM | [4] > 100 µM | [5] > 100 µM | [6] > 100 µM | [7] > 100 µM | [8] > 100 µM | [9] > 100 µM | [18] > 100 µM | [10] > 100 µM | [19] > 100 µM | [11] > 100 µM | [14] > 100 µM | [15] > 100 µM | [16] > 100 µM | [17] > 100 µM

COc1ccc(C2(c3ccc(OC)cc3)OC(=O)c3cccc4cccc2c34)cc1
inactive: [20] > 100 µM | [1] 4.85 µM | [2] > 100 µM | [3] 4.58 µM | [4] > 100 µM | [5] > 100 µM | [6] > 100 µM | [7] 5.94 µM | [8] 5.18 µM | [9] 2.81 µM | [18] 5.37 µM | [10] 9.51 µM | [19] 3.12 µM | [11] 7.93 µM | [12] 27.6 µM | [14] 5.28 µM | [15] 8.11 µM | [16] 5.41 µM

C[C@@H]([C@H]1CC[C@@]2(C)[C@@H]3CC[C@@H]4C(=CC3=CC[C@]12C)CC[C@H](N(C)C)C4(C)C)N(C)C [BUXAMINE A]
inactive: [1] > 100 µM | [3] > 100 µM | [4] > 100 µM | [5] > 100 µM | [6] > 100 µM | [7] > 100 µM | [8] > 100 µM | [9] > 100 µM | [18] > 100 µM | [10] > 100 µM | [19] > 100 µM | [11] > 100 µM | [12] > 100 µM | [13] > 100 µM | [14] > 100 µM | [16] > 100 µM | [17] > 100 µM

COc1ccc(/C=C/c2cc(OC)cc(=O)o2)cc1 [YANGONIN]
inactive: [1] > 100 µM | [2] > 100 µM | [3] > 100 µM | [4] > 100 µM | [5] > 100 µM | [6] > 100 µM | [7] 45.1 µM | [8] > 100 µM | [9] > 100 µM | [18] > 100 µM | [10] 35.5 µM | [19] > 100 µM | [11] 61.7 µM | [12] > 100 µM | [14] 63.1 µM | [15] > 100 µM | [16] 36.1 µM | [17] > 100 µM
